Measured values from BigSolDB 2.1.

O=C(O)c1cc(O)c(O)c(O)c1
solubility (mole fraction)
Settings	293.15 K	298.15 K	303.15 K	308.15 K	313.15 K	318.15 K
in acetonitrile	0.0274	0.0341	0.0355	0.0378	0.0391	0.0405
in isopropanol	0.028	0.0348	0.0362	0.0386	0.04	0.0409
in n-propanol	0.0332	0.0413	0.0429	0.0458	0.0474	0.0486
in water	0.00127	0.00148	0.00204	0.00252	0.0032	0.0038
